In patent publication US10238688B2, “Combination therapies for bladder cancer” (GENEDIA BIOTECH CO. LTD., priority 2015, dated 2019):

What was measured:
[1] = tested on: nine cancer-associated signaling pathways; assay: Pearson correlation of collective drug-triggered pathway activities (single drug versus EH/Ci/Mi regimen)
Text: To calculate the correlation coefficients between the two cell lines, the R language statistics function “cor{stats}” was used to generate the correlation matrix between multiple cell lines.
This example then determined the correlation coefficient between the overall activity of these nine pathways and the chemoresistance state of these five cell lines. […] The overall state of activity of these pathways in each cell line are summarized (FIG. 4E) and the correlation coefficient of each pair of cell lines is calculated (FIG. 4F).

EJ = assay: MTT cell survival / IC50, EJ cells; format: cell-based, human
Protocol: The clinical grade of the chemotherapeutics (NCI Dictionary of Cancer Terms) was provided by the First Affiliated Hospital of Harbin Medical University: Pirarubicin (Pi, Wanle, Shenzhen), Paclitaxel (Pa, Taiji, Sichuan), Adriamycin (Ad, Pfizer, Jiangsu), Epirubicin Hydrochloride (EH, Haizheng, Zhejiang), Hydroxycamptothecin (Hy, Lishizhen, Hubei), Cisplatin (Ci, Haosen, Jiangsu), Gemcitabine (Ge, Haosen, Jiangsu) and Mitomycin (Mi, Haizheng, Zhejiang). The drug induced cell death was determined by a thiazolyl […] (MTT, 490 nm reading) based cell proliferation assay in the cultured cells following treatment by various concentrations of drugs for 72 hours. The relative chemoresistance to each drug of all cell lines was calculated with the lowest IC50 as a reference. The overall chemoresistance of each cell line was described as “chemoresistance index”, the numerator of the total relative IC50 to all the drugs over the number of drugs to rank the overall resistance state of each cell line to the six chemotherapeutics collectively.
The relative IC50 (fold) of each drug of all nine cell lines was normalized to the lowest IC50 in the most sensitive cell line (FIG. 2G), to describe the single drug resistance of cell lines. The overall chemoresistance of each cell line, a “chemoresistance index” (the numerator of the total relative IC50 over the number of drugs) (FIG. 2G) were calculated to rank the overall resistance state of each cell line to this six chemotherapeutics.
Twenty six-drug combinations at the indicated doses were initially generated through a random number generator (using MATLAB MathWorks©, Natick, Mass., U.S.) (The upper half of Table 1). The cell survival (% over the not drug control) of treated cells was determined and then used for a calculation of the average cumulative cell survival (%, ACS: the sum of cell survival (%) per combination divided by the number of cell lines tested). ACS<30% was used to separate the effective from the not-effective combinations.

Myc/Max pathway = assay: Cignal Finder dual-luciferase pathway reporter, Myc/Max; format: cell-based, human; conditions: for Relative activity, Myc/Max reporter: luc/Renluc relative to negative control reporter, single drug at 4 folds vs EH/Ci/Mi combination
Protocol: The pathway analysis was performed with Qiagen's Cignal Finder Pathway Reporter Array systems according to the manufacturer's instructions. The pathway-focused dual-luciferase reporter construct was a mixture of an inducible transcription factor responsive firefly luciferase reporter and constitutively expressing renilla construct. Transcriptional response element (TRE) sequence response elements to each specific transcriptional factor triggered by the different signaling pathways are positioned before the TATA box of firefly luciferase reporter gene. The extent of activity of the reporter reflects the level of activity of the particular signaling pathway. CMV controlled renilla expression vector is co-transfected into the cell as an internal control. Non-inducible reporter construct that lacks the transcriptional factor binding sequence and could not be induced by any transcription factors is used as a negative control. Cells transfected with CMV directed firefly luciferase reporter gene serve as a positive control. Briefly, cells seeded in 6-well plates were transfected with Cignal finder pathway arrays according to the manufacturer's instructions (Qiagen). Then cells were seeded onto 96-well plates. […] After 6 h of incubation with the different drugs at 37° C., cells were lysed and a dual luciferase assay (for firefly and renilla luciferase) was performed using a PromegaGloMax 20/20 illuminometer. The firefly luciferase activities were normalized over the renilla luciferase activities after background activity determined by luciferase activities of negative controls was subtracted. A triple test of cell survival under these drug doses was also performed by MTT assay following 18 h incubation at 37° C. […]

Wnt pathway = assay: Cignal Finder dual-luciferase pathway reporter, Wnt; format: cell-based, human; set-up: key to Relative activity, Wnt reporter: firefly/renilla ratio, background (negative control) subtracted; conditions: for Relative activity, Wnt reporter: luc/Renluc relative to negative control reporter, single drug at 4 folds vs EH/Ci/Mi combination;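 on digitalized pathway activity, Wnt: code −1 means repressed below 0.5-fold of 5637 cells or no-drug control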
Protocol: (§1) The pathway analysis was performed with Qiagen's Cignal Finder Pathway Reporter Array systems according to the manufacturer's instructions. The pathway-focused dual-luciferase reporter construct was a mixture of an inducible transcription factor responsive firefly luciferase reporter and constitutively expressing renilla construct. Transcriptional response element (TRE) sequence response elements to each specific transcriptional factor triggered by the different signaling pathways are positioned before the TATA box of firefly luciferase reporter gene. The extent of activity of the reporter reflects the level of activity of the particular signaling pathway. CMV controlled renilla expression vector is co-transfected into the cell as an internal control. Non-inducible reporter construct that lacks the transcriptional factor binding sequence and could not be induced by any transcription factors is used as a negative control. Cells transfected with CMV directed firefly luciferase reporter gene serve as a positive control. Briefly, cells seeded in 6-well plates were transfected with Cignal finder pathway arrays according to the manufacturer's instructions (Qiagen). Then cells were seeded onto 96-well plates. Ci (6000 ng/mL), Mi (800 ng/mL), or EH (1000 ng/mL) and Ci/Mi/EH combination (Ci, 1500 ng/mL, Mi, 800 ng/mL and EH, 1000 ng/m L) were then added to the cells 24 h post-transfection. After 6 h of incubation with the different drugs at 37° C., cells were lysed and a dual luciferase assay (for firefly and renilla luciferase) was performed using a PromegaGloMax 20/20 illuminometer. The firefly luciferase activities were normalized over the renilla luciferase activities after background activity determined by luciferase activities of negative controls was subtracted. A triple test of cell survival under these drug doses was also performed by MTT assay following 18 h incubation at 37° C. […]

MAPK/ERK pathway = assay: Cignal Finder dual-luciferase pathway reporter, MAPK/ERK; format: cell-based, human; conditions: for Relative activity, MAPK/ERK reporter: luc/Renluc relative to negative control reporter, single drug at 4 folds vs EH/Ci/Mi combination
Protocol: as §1

COC12C(COC(N)=O)C3=C(C(=O)C(C)=C(N)C3=O)N1CC1NC12 (stereo not shown) [Mi, [6-Amino-8a-methoxy-5-methyl-4,7-dioxo-1,1a,2,4,7,8,8a,8b-octahydroazireno [2′,3′:3,4]pyrrolo[1,2-a]indol-8-yl]methyl carbamate]
Correlation coefficients versus EH/Ci/Mi ([1]; 5637 cells): 1 | Correlation coefficients versus EH/Ci/Mi ([1]; Biu87 cells): 0.982 | Correlation coefficients versus EH/Ci/Mi ([1]; H-bc cells): −0.2773 | Correlation coefficients versus EH/Ci/Mi ([1]; SV-HUC-1 cells): 1 | Correlation coefficients versus EH/Ci/Mi ([1]; UmUc3 cells): 0.982 | Cell survival (%) (EJ; Table S3, ng/ml: Pi 40, Pa 160, EH 250, Ci 1500, Mi 200, 1=Ci/Mi, 2=EH/Ci/Mi, 3=Pa/Ci/Mi, 4=Pi/Ci/Mi): 45.2% | Single drug 4X Cell Survival (%) (EJ; ng/ml: EH 1000, Ci 6000, Mi 800, Pi 160, Pa 640, Ge 20, EH/Ci/Mi regimen): 28.67% | relative drug trigged pathway activity over the no-drug level, Myc/Max (Myc/Max pathway; 5637 cells): 1.97 fold | Relative activity, Myc/Max reporter (Myc/Max pathway; 5637 cells): 21.77 | digitalized pathway activity, Myc/Max (Myc/Max pathway; Biu87 cells): 0 (null (0) if neither of the above holds) | relative drug trigged pathway activity over the no-drug level, Myc/Max (Myc/Max pathway; Biu87 cells): 1.16 fold | Relative activity, Myc/Max reporter (Myc/Max pathway; Biu87 cells): 9.49 | digitalized pathway activity, Myc/Max (Myc/Max pathway; H-bc cells): 0 (null (0) if neither of the above holds) | relative drug trigged pathway activity over the no-drug level, Myc/Max (Myc/Max pathway; H-bc cells): 0.75 fold | Relative activity, Myc/Max reporter (Myc/Max pathway; H-bc cells): 9.86 | digitalized pathway activity, Myc/Max (Myc/Max pathway; SV-HUC-1 cells): 0 (null (0) if neither of the above holds) | relative drug trigged pathway activity over the no-drug level, Myc/Max (Myc/Max pathway; SV-HUC-1 cells): 1.45 fold | Relative activity, Myc/Max reporter (Myc/Max pathway; SV-HUC-1 cells): 160.00 | Relative activity, Myc/Max reporter (Myc/Max pathway; UM-UC-3 cells): 22.41 | relative drug trigged pathway activity over the no-drug level, Myc/Max (Myc/Max pathway; Um-Uc-3 cells): 0.38 fold | relative drug trigged pathway activity over the no-drug level, Wnt (Wnt pathway; 5637 cells): 1.87 fold | Relative activity, Wnt reporter (Wnt pathway; 5637 cells): 1.63 | digitalized pathway activity, Wnt (Wnt pathway; Biu87 cells): 0 (null (0) if neither of the above holds) | relative drug trigged pathway activity over the no-drug level, Wnt (Wnt pathway; Biu87 cells): 1.06 fold | Relative activity, Wnt reporter (Wnt pathway; Biu87 cells): 1.77 | digitalized pathway activity, Wnt (Wnt pathway; H-bc cells): 0 (null (0) if neither of the above holds) | relative drug trigged pathway activity over the no-drug level, Wnt (Wnt pathway; H-bc cells): 0.55 fold | Relative activity, Wnt reporter (Wnt pathway; H-bc cells): 0.60 | digitalized pathway activity, Wnt (Wnt pathway; SV-HUC-1 cells): 0 (null (0) if neither of the above holds) | relative drug trigged pathway activity over the no-drug level, Wnt (Wnt pathway; SV-HUC-1 cells): 1.29 fold | Relative activity, Wnt reporter (Wnt pathway; SV-HUC-1 cells): 1.60 | digitalized pathway activity, Wnt (Wnt pathway; UM-UC-3 cells): 0 (null (0) if neither of the above holds) | Relative activity, Wnt reporter (Wnt pathway; UM-UC-3 cells): 4.06 | relative drug trigged pathway activity over the no-drug level, Wnt (Wnt pathway; Um-Uc-3 cells): 1.13 fold | relative drug trigged pathway activity over the no-drug level, MAPK/ERK (MAPK/ERK pathway; 5637 cells): 3.73 fold | Relative activity, MAPK/ERK reporter (MAPK/ERK pathway; 5637 cells): 194.59 | relative drug trigged pathway activity over the no-drug level, MAPK/ERK (MAPK/ERK pathway; Biu87 cells): 2.04 fold | Relative activity, MAPK/ERK reporter (MAPK/ERK pathway; Biu87 cells): 1001.57 | relative drug trigged pathway activity over the no-drug level, MAPK/ERK (MAPK/ERK pathway; H-bc cells): 0.45 fold | Relative activity, MAPK/ERK reporter (MAPK/ERK pathway; H-bc cells): 59.07 | digitalized pathway activity, MAPK/ERK (MAPK/ERK pathway; SV-HUC-1 cells): 0 (null (0) if neither of the above holds) | relative drug trigged pathway activity over the no-drug level, MAPK/ERK (MAPK/ERK pathway; SV-HUC-1 cells): 1.42 fold | Relative activity, MAPK/ERK reporter (MAPK/ERK pathway; SV-HUC-1 cells): 335.00 | digitalized pathway activity, MAPK/ERK (MAPK/ERK pathway; UM-UC-3 cells): 0 (null (0) if neither of the above holds) | Relative activity, MAPK/ERK reporter (MAPK/ERK pathway; UM-UC-3 cells): 151.35 | relative drug trigged pathway activity over the no-drug level, MAPK/ERK (MAPK/ERK pathway; Um-Uc-3 cells): 1.06 fold
